Tested on: Her2
Assay: Degradation of Her2 in BT-474 cells, Method 1 (Western blot)
Type: cell-based, Human
Settings: 0.5 μM, overnight
Experimental: Human high-Her2 breast carcinoma BT474 (HTB-20), SK-BR-3 (HTB-30) and MCF-7 breast carcinoma (HTB-22) from American Type Culture Collection, Va., USA were grown in Dulbecco's modified Eagle's medium with 4 mM L-glutamine and antibiotics (100 IU/ml penicillin and 100 ug/ml streptomycine; GibcoBRL). To obtain exponential cell growth, cells were trypsinized, counted and seeded at a cell density of 0.5×10^6 cells/ml regularly, every 3 days. All experiments were performed on day 1 after cell passage.
BT-474 cells are treated with 0.5 μM, 2 μM, or 5 μM of 17AAG (a positive control) or 0.5 μM, 2 μM, or 5 μM of a compound of the invention overnight in DMEM medium. After treatment, each cytoplasmic sample is prepared from 1×10^6 cells by incubation of cell lysis buffer (#9803, cell Signaling Technology) on ice for 10 minutes. The resulting supernatant used as the cytosol fractions is dissolved with sample buffer for SDS-PAGE and run on a SDS-PAGE gel, blotted onto a nitrocellulose membrane by using semi-dry transfer. Non-specific binding to nitrocellulose is blocked with 5% skim milk in TBS with 0.5% Tween at room temperature for 1 hour, then probed with anti-Her2/ErB2 mAb (rabbit IgG, #2242, Cell Signaling) and anti-Tubulin (T9026, Sigma) as housekeeping control protein. […]

C=CCNC1=C2C[C@@H](C)C[C@H](OC)[C@H](O)[C@@H](C)/C=C(\C)[C@H](OC(N)=O)[C@@H](OC)/C=C\C=C(/C)C(=O)NC(=CC1=O)C2=O [Compound 17AAG]
degradation of Her2: partial degradation
